± gives the standard deviation of the averaged measurements.
Experiments:
UT-SCC-73 [1] = test: relative IC50 (midpoint of the fitted curve; maximal inhibition may be below 50%); higher = less potent; details: treatment time: 3 days
How it was run: (§1)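 Viability of HPV-negative HNSCC cell lines was measured by CellTiter-Glo 2.0 luminescence. Cells were seeded at 500 cells/well in 384-well plates on plastic, on Matrigel- or Myogel-coated wells (500 µg/mL), or embedded in Matrigel or Myogel plus rat collagen I, then given compounds at five 10-fold concentrations for 3 days, with signals normalised to vehicle (0.1% DMSO) and cell-killing control wells. Fitting of percent-inhibition dose–response curves in the FIMM pipeline yielded IC50, maximal inhibition and drug sensitivity score.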

UT-SCC-40 [2] = test: as above; details: treatment time: 3 days
How it was run: as §1

UT-SCC-14 [3] = test: as above; details: culture condition: on top of Matrigel; treatment time: 3 days
How it was run: as §1

UT-SCC-24B [4] = test: as above; details: culture condition: on top of Myogel; treatment time: 3 days
How it was run: as §1

UT-SCC-42B [5] = test: as above; details: culture condition: plastic 2D (no matrix); treatment time: 3 days
How it was run: as §1

UT-SCC-106A [6] = test: as above; details: treatment time: 3 days
How it was run: as §1

UT-SCC-44 [7] = test: as above; details: treatment time: 3 days
How it was run: as §1

UT-SCC-73 [8] = test: maximal % inhibition of viability relative to DMSO; higher = stronger effect; details: treatment time: 3 days
Experimental: (§2)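 HNSCC cell lines (500 cells/well, 384-well) were cultured on plastic, on top of (2D) or embedded (3D) in Matrigel or human leiomyoma matrix Myogel (500 ug/mL; Myogel 3D mixed with rat collagen I). Cells were treated for 3 days with 5 ten-fold concentrations of each drug, and viability was read by CellTiter-Glo. Viability was normalised to DMSO and benzethonium chloride controls and fitted with the FIMM DSRT pipeline to give IC50 (nM), maximal % inhibition and DSS. Suffixes _1/_2/_3 are replicates. Only inhibition-mode (IC50) fits are kept.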

UT-SCC-40 [9] = test: as above; details: treatment time: 3 days
Experimental: as §2

UT-SCC-8 = test: as above; details: treatment time: 3 days
Experimental: as §2

UT-SCC-28 = test: as above; details: treatment time: 3 days
Experimental: as §2

UT-SCC-42A = test: as above; details: treatment time: 3 days
Experimental: as §2

UT-SCC-14 [10] = test: as above; details: treatment time: 3 days
Experimental: as §2

UT-SCC-24B [11] = test: as above; details: treatment time: 3 days
Experimental: as §2

UT-SCC-42B [12] = test: as above; details: treatment time: 3 days
Experimental: as §2

UT-SCC-106A [13] = test: as above; details: treatment time: 3 days
Experimental: as §2

UT-SCC-81 = test: as above; details: treatment time: 3 days
Experimental: as §2

UT-SCC-44 [14] = test: as above; details: treatment time: 3 days
Experimental: as §2

UT-SCC-24A = test: drug sensitivity score (DSS); higher = more sensitive; details: treatment time: 3 days
Experimental: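 HNSCC cell lines (500 cells/well, 384-well) were cultured on plastic, on top of (2D) or embedded (3D) in Matrigel or human leiomyoma matrix Myogel (500 ug/mL; Myogel 3D mixed with rat collagen I). Cells were treated for 3 days with 5 ten-fold concentrations of each drug, and viability was read by CellTiter-Glo. Suffixes _1/_2/_3 on drug names are replicates.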

[15] = culture condition: on top of Matrigel
[16] = culture condition: plastic 2D (no matrix)
[17] = culture condition: embedded in Matrigel
[18] = culture condition: on top of Myogel
[19] = culture condition: embedded in Myogel + collagen I

relative IC50 (UT-SCC-73 [1]; [15]): 1.92 nM
relative IC50 (UT-SCC-73 [1]; [16]): 7.59 nM
relative IC50 (UT-SCC-40 [2]; [17]): 4.61 nM
relative IC50 (UT-SCC-40 [2]; [16]): 9.09 nM
relative IC50 (UT-SCC-14 [3]): 6.41 nM
relative IC50 (UT-SCC-24B [4]): 5.03 nM
relative IC50 (UT-SCC-42B [5]): 20.8 nM
relative IC50 (UT-SCC-106A [6]; [17]): 28.4 nM
relative IC50 (UT-SCC-106A [6]; [18]): 8.1 nM
relative IC50 (UT-SCC-44 [7]; [19]): 6.3 nM
relative IC50 (UT-SCC-44 [7]; [15]): 0.89 nM
relative IC50 (UT-SCC-44 [7]; [18]): 1.1 nM
Structure (SMILES): CO[C@H]1C[C@@H]2CC[C@@H](C)[C@@](O)(O2)C(=O)C(=O)N2CCCC[C@H]2C(=O)O[C@H]([C@H](C)C[C@@H]2CC[C@@H](OCCO)[C@H](OC)C2)CC(=O)[C@H](C)/C=C(\C)[C@@H](O)[C@@H](OC)C(=O)[C@H](C)C[C@H](C)/C=C/C=C/C=C/1C [Everolimus]
maximal % inhibition of viability (UT-SCC-73 [8]; [17]): 22.8 ± 3.8%
maximal % inhibition of viability (UT-SCC-73 [8]; [19]): 46.1 ± 20%
maximal % inhibition of viability (UT-SCC-73 [8]; [15]): 26 ± 4.4%
maximal % inhibition of viability (UT-SCC-73 [8]; [18]): 34.8 ± 1.5%
maximal % inhibition of viability (UT-SCC-73 [8]; [16]): 28 ± 2.5%
maximal % inhibition of viability (UT-SCC-40 [9]; [17]): 27.2 ± 25%
maximal % inhibition of viability (UT-SCC-40 [9]; [19]): 33.3 ± 4.4%
maximal % inhibition of viability (UT-SCC-40 [9]; [15]): 23.3 ± 5.5%
maximal % inhibition of viability (UT-SCC-40 [9]; [18]): 20.2 ± 10%
maximal % inhibition of viability (UT-SCC-40 [9]; [16]): 21.6 ± 8.3%
maximal % inhibition of viability (UT-SCC-8; [17]): 39.1 ± 2.8%
maximal % inhibition of viability (UT-SCC-8; [19]): 36.4 ± 12%
maximal % inhibition of viability (UT-SCC-8; [15]): 36.6 ± 9.4%
maximal % inhibition of viability (UT-SCC-8; [18]): 46.9 ± 14%
maximal % inhibition of viability (UT-SCC-8; [16]): 44.7 ± 11%
maximal % inhibition of viability (UT-SCC-28; [17]): 28.6 ± 11%
maximal % inhibition of viability (UT-SCC-28; [19]): 27.7 ± 7.6%
maximal % inhibition of viability (UT-SCC-28; [15]): 28.2 ± 6.3%
maximal % inhibition of viability (UT-SCC-28; [16]): 28.1 ± 8.8%
maximal % inhibition of viability (UT-SCC-42A; [17]): 17.3 ± 9.2%
maximal % inhibition of viability (UT-SCC-42A; [19]): 32.2 ± 2.5%
maximal % inhibition of viability (UT-SCC-42A; [15]): 34.3 ± 6%
maximal % inhibition of viability (UT-SCC-42A; [18]): 33.1 ± 5%
maximal % inhibition of viability (UT-SCC-42A; [16]): 29.9 ± 2.9%
maximal % inhibition of viability (UT-SCC-14 [10]; [17]): 58 ± 10%
maximal % inhibition of viability (UT-SCC-14 [10]; [19]): 50.9 ± 5.5%
maximal % inhibition of viability (UT-SCC-14 [10]; [15]): 47.6 ± 5.8%
maximal % inhibition of viability (UT-SCC-14 [10]; [18]): 42.6 ± 0.36%
maximal % inhibition of viability (UT-SCC-14 [10]; [16]): 46.4 ± 8.9%
maximal % inhibition of viability (UT-SCC-24B [11]; [17]): 28.7 ± 6.1%
maximal % inhibition of viability (UT-SCC-24B [11]; [19]): 44.8 ± 5.3%
maximal % inhibition of viability (UT-SCC-24B [11]; [15]): 18.1 ± 0.91%
maximal % inhibition of viability (UT-SCC-24B [11]; [18]): 30.1 ± 8.6%
maximal % inhibition of viability (UT-SCC-24B [11]; [16]): 24.9 ± 3%
maximal % inhibition of viability (UT-SCC-42B [12]; [17]): 14.8 ± 5.8%
maximal % inhibition of viability (UT-SCC-42B [12]; [15]): 14.4 ± 2.9%
maximal % inhibition of viability (UT-SCC-42B [12]; [18]): 10.9 ± 2.4%
maximal % inhibition of viability (UT-SCC-42B [12]; [16]): 12.6 ± 3.1%
maximal % inhibition of viability (UT-SCC-106A [13]; [17]): 30.8 ± 12%
maximal % inhibition of viability (UT-SCC-106A [13]; [19]): 20.6 ± 4.6%
maximal % inhibition of viability (UT-SCC-106A [13]; [15]): 40.7 ± 13%
maximal % inhibition of viability (UT-SCC-106A [13]; [18]): 21.3 ± 5%
maximal % inhibition of viability (UT-SCC-106A [13]; [16]): 50.1 ± 11%
maximal % inhibition of viability (UT-SCC-81; [17]): 43.5 ± 14%
maximal % inhibition of viability (UT-SCC-81; [19]): 54.1 ± 1.6%
maximal % inhibition of viability (UT-SCC-81; [15]): 39.4 ± 3.5%
maximal % inhibition of viability (UT-SCC-81; [18]): 53.2 ± 3.5%
maximal % inhibition of viability (UT-SCC-81; [16]): 46.8 ± 3.7%
maximal % inhibition of viability (UT-SCC-44 [14]; [17]): 30.9 ± 17%
maximal % inhibition of viability (UT-SCC-44 [14]; [19]): 45 ± 2.1%
maximal % inhibition of viability (UT-SCC-44 [14]; [15]): 34 ± 2.7%
maximal % inhibition of viability (UT-SCC-44 [14]; [18]): 37.7 ± 4.2%
maximal % inhibition of viability (UT-SCC-44 [14]; [16]): 33.1 ± 5.5%
drug sensitivity score (UT-SCC-24A; [17]): 3.6 ± 6.2 DSS
drug sensitivity score (UT-SCC-24A; [19]): 6.43 ± 3 DSS
drug sensitivity score (UT-SCC-24A; [15]): 2.93 ± 2.3 DSS
drug sensitivity score (UT-SCC-24A; [18]): 2.57 ± 0.21 DSS
drug sensitivity score (UT-SCC-24A; [16]): 2.57 ± 0.25 DSS

From the supplement of paper PMC7017272
